Data as given in article PMC9131456, “Structure-Based Discovery of Lipoteichoic Acid Synthase Inhibitors” (Journal of Chemical Information and Modeling, 2022).

Tests used:
[1] = system: S. aureus (strain Newman); assay: Antimicrobial microdilution broth assay (growth inhibition); type: cell-based; conditions: S. aureus strain Newman growth, OD600nm after 20 h at 37 °C, MH2 broth, mean ± s.e.m., n = 3
Protocol: All the compounds tested in this study were dissolved in dimethyl sulfoxide (DMSO) at an initial stock concentration of 20 mM and stored at −20 °C. These compounds were tested for their antimicrobial activity using the microdilution broth method[66] following the protocol described by Richter et al.[30] Briefly, overnight cultures of S. aureus (strain Newman) grown at 37 °C in cation-adjusted Mueller Hinton II (MH2) broth were adjusted to an OD600nm of 0.6 before back-diluted with a factor of 1:2000 with the same broth. After that, 200 μL of the diluted bacterial culture were dispensed into each well of 96-well plates supplemented with the compounds to the desired concentrations. The plates were then sealed with a moisture membrane barrier and incubated statically for 20 h at 37 °C. After that, the OD600nm values of the cultures in each well were measured using a CLARIOstar microplate reader (BMG Labtech). The procedures for the potentiation assays were by large the same as described above with some variations. In such assays, MRSA strain COL was grown in the 96-well plates supplemented with different concentrations of compound 9 with methicillin, carbenicillin, or polymyxin B in a checkerboard format. Their synergistic effects were quantified by OD600nm measurements using a CLARIOstar microplate reader (BMG Labtech).

[2] = system: LTA production in S. aureus (strain RN4220); assay: Western blot (immunoblotting) of LTA in S. aureus cell extracts; type: cell-based; conditions: for LTA production: Western blot of S. aureus cell extracts, 10 μM in Figure S14, 100 μM for compound 8
Protocol: The procedures of LTA detection using Western Blot had previously been reported by Gründling et al.[52] To determine the effect of the compounds on LTA production, 10 mL cultures of S. aureus (strain RN4220) in MH2 broth were incubated in an orbital shaker at 37 °C with either the compounds or DMSO. When the control cultures had reached an OD600nm ∼ 1, the bacteria were pelleted and the OD600nm of the cultures normalized by resuspension with the appropriate amount of MH2 broth. Subsequently, 1 mL from each cultures was mixed with 0.5 mL of 0.1 mm glass beads, and the bacteria were lyzed by vortexing at 4 °C for 45 min. After lysis, glass beads were removed by centrifugation at 200g, and the supernatants were transferred to a new tube. The membrane-associated LTA from each culture were pelleted by an additional centrifugation step of the supernatant at 16,000g for 15 min before resuspension in 30 μL of 2× SDS. The samples were boiled at 80 °C for 20 min, and the solubilized fractions were loaded onto 15% SDS-polyacrylamide gels prior to electrophoresis at 120 V for 1.5 h. The LTA on the gels were electrotransferred onto FL-immobilon PVDF membranes at 25 V for another 1.5 h. After the electrotransfer, the membranes were blocked with 5% skimmed milk for 1 h and incubated with the antimouse LTA antibody (clone G43J, Thermo Fisher Scientific; 1:1000 dilution) overnight at 4 °C. After washing, the membranes were incubated with antimouse IRDye 680RD (1:10,000 dilution) for 1 h, washed, and visualized using the Odyssey CLx Imaging System.

IsaA = assay: SDS-PAGE and LC/MS-MS analysis of the lysate of treated S. aureus; type: cell-based; conditions: S. aureus treated with 100 μM compound, SDS-PAGE
HEK293 cells = assay: LDH release cytotoxicity assay; type: cell-based, human; conditions: 200 μM compound, 24 h
Protocol: The human embryonic kidney (HEK293) cells were maintained in Dulbecco’s modified Eagle medium (DMEM) supplemented with 10% fetal bovine serum and 100 units/mL of penicillin–streptomycin. For the cell viability assays, cells were seeded onto 96-well plates at a density of 4 × 10^4 cells/well and grown at 37 °C at 5% CO2. After incubating the cells for 24 h, the culture media were replaced with fresh DMEM supplemented with 200 μM of the compounds 1771, compound 4, compound 8, and compound 9 and incubated further for an additional 24 h. The cytotoxicity of these drugs was measured using the LDH Cytotoxicity Assay Kit according to the manufacturer’s instruction (Thermo Scientific). The absorbance at 490 nm was measured with a CLARIOstar microplate reader (BMG Labtech), and the reference wavelength was set at 630 nm.

LTA synthase (LtaS) = system: LTA synthase (LtaS); set-up: method as in PMID 23401520; conditions: by inhibiting LtaS; cited from earlier work
wild-type eLtaS = target: T1, wild-type eLtaS (Staphylococcus aureus, UniProt Q2G093); assay: Isothermal titration calorimetry, wild-type eLtaS; type: binding, S. aureus; conditions: ITC, 25 °C, wild-type eLtaS titrated into 10 μM inhibitor
T1 construct: LtaS is a transmembrane protein with a large extracellular catalytic domain (denoted as eLtaS); His-tag; made in house; host or cells: E. coli (Rosetta; plasmid pProEX-eLtaS from strain ANG571)
Protocol: Each of the eLtaS proteins were purified from 6 L of E. coli cultures that were grown with aeration in LB medium supplemented with 200 μg/mL of carbenicillin and 34 μg/mL of chloramphenicol at 37 °C. When the cultures reached an OD600nm of about 0.6, protein expression was induced with 1 mM IPTG final concentration at 21 °C overnight. Later, the bacteria were harvested by centrifugation at 11,899g, and the bacterial pellets were resuspended with lysis buffer (50 mM Trizma-HCl, pH 7.5, 300 mM NaCl, 5% glycerol, 10 mM imidazole, 5 mM β-mercaptoethanol). The bacterial pellets were lyzed by three passages through a high-pressure emulsifier, and the lysates were centrifuged at 47,596g for 30 min at 4 °C. The resulting supernatants containing the His-tagged eLtaS proteins were filtered with a 0.22 μm filter before being loaded onto a 5 mL Ni-NTA column using an ÄKTApure protein purification system. The bound proteins were subsequently washed with lysis buffer, eluted using the elution buffer (50 mM Trizma-HCl, pH 7.5, 300 mM NaCl, 5% glycerol, and 300 mM imidazole), and dialyzed twice using the dialysis buffer [25 mM Trizma-HCl, pH 7.5, 100 mM NaCl, 10% glycerol, 1 mM ethylenediaminetetraacetic acid (EDTA)]. After dialysis, protein purity was confirmed to be >90% using SDS-PAGE. Proteins were then concentrated, snap-frozen in liquid N2, and stored at −80 °C prior to usage. All four eLtaS proteins were subjected to circular dichroism analysis, and their exact masses were determined using MS.
The thawed eLtaS proteins were dialyzed using D-Tube Dialyzer Mini (EMD Millipore) in 20 mM Trizma-HCl pH 7.5, 100 mM NaCl with Chelex 100 (Sigma-Aldrich) for 1.5 h twice on the same day prior to the ITC experiments. After dialysis, the eLtaS proteins were centrifuged at 20,000g at 10 °C for 10 min. The supernatants were transferred to new microcentrifuge tubes and diluted to 100 μM using the same buffer as above with an addition of 0.1% (v/v) DMSO. Meanwhile, the eLtaS inhibitors were diluted to 10 μM using the same buffer and maintaining 0.1% (v/v) DMSO. The eLtaS proteins were titrated into the main cell containing the inhibitors using a VP-ITC at 25 °C. The injection parameters were set as follows: a reference power of 15 μcal/s, an initial injection of 3 μL over a duration of 3.6 s, and then subsequent injections of 10 μL over a duration of 12 s. All injections were spaced with 240 s with a filter period of 2 s. Data were first analyzed in NITPIC[69] for baseline calculations and then fit for thermodynamic parameters using the OneSite model in Origin 7.0 software.

[3] = set-up: method as in PMID 23401520; conditions: lethal sepsis mouse model; cited from earlier work
His347Ala eLtaS = target: T2, His347Ala eLtaS (Staphylococcus aureus, UniProt Q2G093, H347A); assay: Isothermal titration calorimetry, His347Ala eLtaS; type: binding, S. aureus; conditions: ITC, compared with wild-type eLtaS
T2 construct: LtaS is a transmembrane protein with a large extracellular catalytic domain (denoted as eLtaS); His-tag; made in house; host or cells: E. coli Rosetta 2 (DE3), pET19m
Text: (§1) The plasmid [Rosetta pProEX-eLtaS] from E coli strain ANG571 was extracted using the QIAprep Spin Miniprep Kit. Meanwhile, the genes encoding the mutant LtaS with mutations His416Ala, His347Ala, and Arg356Ala were extracted from the strains ANG1115, ANG1175, and ANG1178, respectively, using the QIAamp DNA Mini Kit. These genes were amplified using PCR, cut with NdeI/BamHI, and ligated into a pET19m transformed into E. coli Rosetta 2 (DE3) strain.
(§2) Each of the eLtaS proteins were purified from 6 L of E. coli cultures that were grown with aeration in LB medium supplemented with 200 μg/mL of carbenicillin and 34 μg/mL of chloramphenicol at 37 °C. When the cultures reached an OD600nm of about 0.6, protein expression was induced with 1 mM IPTG final concentration at 21 °C overnight. […] All four eLtaS proteins were subjected to circular dichroism analysis, and their exact masses were determined using MS.
(§3) The thawed eLtaS proteins were dialyzed using D-Tube Dialyzer Mini (EMD Millipore) in 20 mM Trizma-HCl pH 7.5, 100 mM NaCl with Chelex 100 (Sigma-Aldrich) for 1.5 h twice on the same day prior to the ITC experiments. […] Data were first analyzed in NITPIC[69] for baseline calculations and then fit for thermodynamic parameters using the OneSite model in Origin 7.0 software.

His416Ala eLtaS = target: T3, His416Ala eLtaS (Staphylococcus aureus, UniProt Q2G093, H416A); assay: Isothermal titration calorimetry, His416Ala eLtaS; type: binding, S. aureus; conditions: ITC, compared with wild-type eLtaS
T3 construct: LtaS is a transmembrane protein with a large extracellular catalytic domain (denoted as eLtaS); His-tag; made in house; host or cells: E. coli Rosetta 2 (DE3), pET19m
Text: as §1, §2, §3

[4] = system: S. aureus (strain Newman); assay: Non-lethal S. aureus lung infection mouse model; type: in vivo, BALB/c female mice; conditions: 300 μg intranasally, infected BALB/c mice
Text: All in vivo experiments were done at the University of Liverpool under the UK Animals (Scientific Procedures) Act 1986 guidelines. The protocols were approved by the UK Home Office and by the University of Liverpool Animal Welfare and Ethics Committee. Six to eight week old BALB/c female mice (Charles River, UK) were used in the study after being left to acclimatize for a minimum of 7 days prior to experimentation. Mice were intranasally infected with 5 × 10^7 CFU of the S. aureus (strain Newman) in 50 μL of sterile phosphate-buffered saline (PBS). The bacterial dose was prepared by incubating 50 μL of an overnight culture in brain heart infusion (BHI) broth (Oxoid, Thermo Fisher Scientific, UK) into 5 mL of fresh BHI. Once the culture reached an OD600 = 2–3, the bacterial numbers were adjusted to the desired dose using sterile PBS. Three hours postinfection, mice were intranasally treated with either 50 μL of sterile PBS (control) or with 300 μg of compounds 1771 and compound 4 dissolved in 50 μL of sterile PBS. The final DMSO concentration was 5%, and the PBS control also contained 5% DMSO. Mice were culled 24 h postinfection; lungs were collected, homogenized, and serially diluted to determine CFU counts.[70] Significant differences were determined using the unpaired two-tailed Student t-test (p = 0.0013).

Arg356Ala eLtaS = target: T4, Arg356Ala eLtaS (Staphylococcus aureus, UniProt Q2G093, R356A); assay: Isothermal titration calorimetry, Arg356Ala eLtaS; type: binding, S. aureus; conditions: ITC, compared with wild-type eLtaS
T4 construct: LtaS is a transmembrane protein with a large extracellular catalytic domain (denoted as eLtaS); His-tag; made in house; host or cells: E. coli Rosetta 2 (DE3), pET19m
Text: as §1, §2, §3

[5] = Staphylococcus aureus, NEWMAN, 20 h

COc1ccccc1Nc1ncccc1C(=O)OCC(=O)Nc1nnc(-c2ccccc2)o1 [Compound 2] showed an IC50 [1] of 12.3 ± 0.38 µM.
For Cc1csc(SCc2ccccc2C(=O)OCC(=O)Nc2nnc(-c3ccccc3)o2)n1 [Compound 3], the IC50 [1] was 13.4 ± 0.35 µM and the LTA production [2] was “able to reduce LTA production”.
Molecule O=C(COC(=O)CSC(c1ccccc1)c1ccccc1)Nc1nnc(-c2ccccc2)o1 [Compound 5] has an IC50 [1] of 17.5 ± 1.08 µM.
For Cc1cccc(COc2ccccc2C(=O)OCC(=O)Nc2nnc(-c3ccccc3)o2)c1 [Compound 6], the IC50 [1] was 11.1 ± 0.49 µM and the LTA production [2] was “able to reduce LTA production”.
In the case of O=C(COC(=O)/C=C/c1ccc2ccccc2n1)Nc1nnc(-c2ccccc2)o1 [Compound 7], the IC50 [1] is reported as 12.4 ± 1.9 µM.
With O=C(Nc1ccc(Oc2ccc(NC(=O)Nc3ccc([N+](=O)[O-])cc3)cc2)cc1)Nc1ccc([N+](=O)[O-])cc1 [Compound 8] the IC50 [1] was 29.4 µM, the IC50 [1, 5] was 29.4 µM and the LTA production [2] was “did not decrease LTA production”. For the same molecule, the “electrophoretic mobility of the LTA extracted from treated S. aureus” value ([2]; Western blot, 100 μM compound) was “decreased electrophoretic mobility and higher heterogeneity”, the “protein upregulation in the lysate (IsaA, a peptidoglycan hydrolase)” value (IsaA) was “upregulated a 24 kDa protein” and the “cytotoxicity (LDH release)” value (HEK293 cells) was “cytotoxic”.
In the case of O=C(COC(=O)Cc1coc2ccc3ccccc3c12)Nc1nnc(-c2ccccc2)o1 [compound 1771], the LTA synthesis (LTA synthase (LtaS)) is given as “able to suppress LTA synthesis”, the Kd (wild-type eLtaS) is given as 0.457 ± 0.0071 µM and the IC50 [1] is given as 14.9 ± 1.59 µM. The IC50 [1, 5] was 14.5 µM, the in vivo stability [3] was “lost activity over time due to in vivo instability” and the “survival of infected mice” value [3] was “temporarily prolong the survival of the infected mice”. For the same molecule, the “binding to the His347Ala eLtaS variant” value (His347Ala eLtaS) was “abolished”, the “binding affinity to the His416Ala eLtaS variant” value (His416Ala eLtaS) was “slight increase in binding affinities” and the tolerability in mice [4] was “did not tolerate the latter well”. For the same molecule, the “binding affinity to the Arg356Ala eLtaS variant” value (Arg356Ala eLtaS) was “slight increase in binding affinities”.
